Measured values from PubChem BioAssay (NCI).
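Tested at 5 concentrations; 48 h exposure; 96-well plates; endpoints linearly interpolated, else capped at highest concentration. GI50: concentration for 50% inhibition of growth. At the TGI there is no net growth.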

What was measured:
Assay in all cases: NCI tumour cell line growth inhibition, 48 h
[1] = test system: NCI-H460 lung
[2] = test system: HS 578T breast
[3] = test system: MDA-MB-231 breast
[4] = test system: SF-539 CNS
[5] = test system: UO-31 renal
[6] = test system: SF-268 CNS
[7] = test system: SNB-75 CNS
[8] = test system: MALME-3M melanoma
[9] = test system: T-47D breast
[10] = test system: CCRF-CEM leukemia
[11] = test system: MDA-MB-435
[12] = test system: HCC-2998 colon
[13] = test system: UACC-62 melanoma
[14] = test system: NCI-H522 lung
[15] = test system: A498 renal
[16] = test system: MDA-MB-468 breast
[17] = test system: NCI/ADR-RES ovarian
[18] = test system: HT29 colon
[19] = test system: IGROV1 ovarian
[20] = test system: 786-0 renal
[21] = test system: SNB-19 CNS
[22] = test system: MOLT-4 leukemia
[23] = test system: U251 CNS
[24] = test system: HOP-92 NSCLC
[25] = test system: BT-549 breast
[26] = test system: KM12 colon
[27] = test system: EKVX NSCLC
[28] = test system: A549 NSCLC
[29] = test system: CAKI-1 renal
[30] = test system: SF-295 CNS
[31] = test system: PC-3 prostate
[32] = test system: DU-145 prostate
[33] = test system: HCT-116 colon
[34] = test system: SK-MEL-5 melanoma
[35] = test system: OVCAR-4 ovarian
[36] = test system: SK-MEL-28 melanoma
[37] = test system: SK-OV-3 ovarian
[38] = test system: K-562 leukemia
[39] = test system: HCT-15 colon
[40] = test system: SR leukemia
[41] = test system: ACHN renal
[42] = test system: LOX IMVI melanoma
[43] = test system: COLO 205 colon
[44] = test system: SN12C renal
[45] = test system: NCI-H226 lung
[46] = test system: HL-60(TB) leukemia
[47] = test system: HOP-62 NSCLC
[48] = test system: RXF 393 renal
[49] = test system: RPMI-8226 leukemia
[50] = test system: SK-MEL-2 melanoma
[51] = test system: SW-620 colon
[52] = test system: OVCAR-5 ovarian
[53] = test system: TK-10 renal
[54] = test system: NCI-H23 lung
[55] = test system: OVCAR-8 ovarian
[56] = test system: UACC-257 melanoma
[57] = test system: M14 melanoma
[58] = test system: MCF7 breast
[59] = test system: OVCAR-3 ovarian

In the case of OCCCNc1oc(-c2ccccc2)nc1[P+](c1ccccc1)(c1ccccc1)c1ccccc1, the GI50 [1] is reported as 2.61 µM, the TGI [1] is reported as 11.3 µM and the GI50 [2] is reported as 2.25 µM. For the same molecule, the TGI [2] was 8.21 µM, the GI50 [3] was 1.72 µM and the TGI [3] was 4.84 µM. For the same molecule, the GI50 [4] was 3.86 µM, the TGI [4] was 14.4 µM and the GI50 [5] was 15.7 µM. It also gave a TGI [5] of 33.2 µM, a GI50 [6] of 2.76 µM and a TGI [6] of 11.8 µM. It also gave a GI50 [7] of 1.3 µM, a TGI [7] of 5.38 µM and a GI50 [8] of 1.57 µM. For the same molecule, the TGI [8] was 5.38 µM, the GI50 [9] was 1.26 µM and the TGI [9] was 6.72 µM. For the same molecule, the GI50 [10] was 2.46 µM, the TGI [10] was 13.5 µM and the GI50 [11] was 2.26 µM. It also gave a TGI [11] of 10 µM, a GI50 [12] of 2.95 µM and a TGI [12] of 12.8 µM. It also gave a GI50 [13] of 1.38 µM, a TGI [13] of 3.85 µM and a GI50 [14] of 1.76 µM. For the same molecule, the TGI [14] was 7.82 µM, the GI50 [15] was 10.4 µM and the TGI [15] was 23 µM. It also gave a GI50 [16] of 0.337 µM, a TGI [16] of 1.97 µM and a GI50 [17] greater than 100 µM. For the same molecule, the TGI [17] was greater than 100 µM, the GI50 [18] was 2.45 µM and the TGI [18] was 13.3 µM. The GI50 [19] was 2.14 µM, the TGI [19] was 7.01 µM and the GI50 [20] was 5.72 µM. The TGI [20] was 20 µM, the GI50 [21] was 2.15 µM and the TGI [21] was 7.25 µM. For the same molecule, the GI50 [22] was 3.01 µM, the TGI [22] was 12.1 µM and the GI50 [23] was 2.67 µM. The TGI [23] was 11.7 µM, the GI50 [24] was 1.24 µM and the TGI [24] was 5.68 µM. It also gave a GI50 [25] of 1.87 µM, a TGI [25] of 6.03 µM and a GI50 [26] of 2.13 µM. For the same molecule, the TGI [26] was 7.15 µM, the GI50 [27] was 2.81 µM and the TGI [27] was 13.6 µM. For the same molecule, the GI50 [28] was 5.68 µM, the TGI [28] was 20.3 µM and the GI50 [29] was 4.28 µM. For the same molecule, the TGI [29] was 21.7 µM, the GI50 [30] was 3.02 µM and the TGI [30] was 10.5 µM. It also gave a GI50 [31] of 1.6 µM, a TGI [31] of 9 µM and a GI50 [32] of 3.86 µM. It also gave a TGI [32] of 16.4 µM, a GI50 [33] of 2.52 µM and a TGI [33] of 15.9 µM. For the same molecule, the GI50 [34] was 1.15 µM, the TGI [34] was 2.38 µM and the GI50 [35] was 2.37 µM. For the same molecule, the TGI [35] was 15.7 µM, the GI50 [36] was 2.09 µM and the TGI [36] was 11 µM. The GI50 [37] was 2.34 µM, the TGI [37] was 8.1 µM and the GI50 [38] was 1.46 µM. It also gave a TGI [38] of 11.7 µM, a GI50 [39] of 13.7 µM and a TGI [39] of 28.1 µM. The GI50 [40] was 3.43 µM, the TGI [40] was 16.1 µM and the GI50 [41] was 10.2 µM. For the same molecule, the TGI [41] was 24.8 µM, the GI50 [42] was 3.12 µM and the TGI [42] was 12.2 µM. For the same molecule, the GI50 [43] was 1.26 µM, the TGI [43] was 4.41 µM and the GI50 [44] was 2.61 µM. For the same molecule, the TGI [44] was 7.59 µM, the GI50 [45] was 2.44 µM and the TGI [45] was 9.8 µM. The GI50 [46] was 0.586 µM, the TGI [46] was 2.9 µM and the GI50 [47] was 3.25 µM. The TGI [47] was 14.5 µM, the GI50 [48] was 1.23 µM and the TGI [48] was 5.79 µM. For the same molecule, the GI50 [49] was 0.41 µM, the TGI [49] was 10.2 µM and the GI50 [50] was 2.49 µM. It also gave a TGI [50] of 6.46 µM, a GI50 [51] of 3.29 µM and a TGI [51] of 15.2 µM. It also gave a GI50 [52] of 3.42 µM, a TGI [52] of 15.5 µM and a GI50 [53] of 3.62 µM. For the same molecule, the TGI [53] was 16.3 µM, the GI50 [54] was 3.02 µM and the TGI [54] was 12.5 µM. It also gave a GI50 [55] of 2.84 µM, a TGI [55] of 10.7 µM and a GI50 [56] of 1.98 µM. For the same molecule, the TGI [56] was 6.1 µM, the GI50 [57] was 3.13 µM and the TGI [57] was 17.7 µM. For the same molecule, the GI50 [58] was 1.95 µM, the TGI [58] was 8.73 µM and the GI50 [59] was 1.44 µM. The TGI [59] was 8.15 µM.
